Data published in paper PMC4839570, “Novel Anthra[1,2-c][1,2,5]Thiadiazole-6,11-Diones as Promising Anticancer Lead Compounds: Biological Evaluation, Characterization & Molecular Targets Determination” (PLoS ONE, 2016).
Where two headings read alike, the source gives them in different places.

Columns and labels:
A549/ATCC = experiment: NCI-60 cytotoxicity screen; assay type: cell-based
EKVX = experiment: NCI-60 cytotoxicity screen; assay type: cell-based
NCI-H226 [1] = experiment: NCI-60 cytotoxicity screen; assay type: cell-based
NCI-H522 = experiment: NCI-60 cytotoxicity screen; assay type: cell-based
SF-268 = experiment: NCI-60 cytotoxicity screen; assay type: cell-based
SNB-75 [2] = experiment: NCI-60 cytotoxicity screen; assay type: cell-based
U251 = experiment: NCI-60 cytotoxicity screen; assay type: cell-based
OVCAR-4 = experiment: NCI-60 cytotoxicity screen; assay type: cell-based
786-0 = experiment: NCI-60 cytotoxicity screen; assay type: cell-based
CAKI-1 = experiment: NCI-60 cytotoxicity screen; assay type: cell-based
BT-549 = experiment: NCI-60 cytotoxicity screen; assay type: cell-based
BSY-1 = experiment: JFCR-39 cytotoxicity screen; assay type: cell-based
SF-539 = experiment: JFCR-39 cytotoxicity screen; assay type: cell-based
SNB-75 [3] = experiment: JFCR-39 cytotoxicity screen; assay type: cell-based
HCT-15 = experiment: JFCR-39 cytotoxicity screen; assay type: cell-based
HCT-116 = experiment: JFCR-39 cytotoxicity screen; assay type: cell-based
NCI-H226 [4] = experiment: JFCR-39 cytotoxicity screen; assay type: cell-based
OVCAR-5 = experiment: JFCR-39 cytotoxicity screen; assay type: cell-based
RXF-631L = experiment: JFCR-39 cytotoxicity screen; assay type: cell-based
MKN1 = experiment: JFCR-39 cytotoxicity screen; assay type: cell-based
PC-3 = experiment: JFCR-39 cytotoxicity screen; assay type: cell-based
[5] = test system: NCI 60 human cancer cell lines; experiment: NCI-60 screen, means, ranges and selectivity over panels; assay type: cell-based; details: for GI50: Homo sapiens
Procedure: Both NSC745885 and NSC757963 satisfied the pre-determined threshold inhibition criteria of the NCI-60 One-Dose Screening, so they were tested against the panels of 60 cancer cell lines of NCI (NCI-60) and 39 cancer cell lines of JFCR (JFCR-39), each cell line was tested at five small doses of our compounds. Results are expressed as the 50% growth inhibition concentration (GI50), the 50% lethal concentration (LC50) and the total growth inhibition (TGI), compared to the values of untreated control cells.
To characterize the selectivity of NSC745885 and NSC757963 further among the different types of cancer, we determined their selectivity ratios towards each cell line subpanel used in the cytotoxicity experiments. […] The promising activity of this compound is evident from the small mean GI50 values. […] The strongest activity was towards the leukemia subpanel and the least one was towards the colon cancer subpanel. […] The strongest activity was towards the melanoma subpanel and the least one was towards the colon cancer subpanel.
All cell lines were published before.

[6] = test system: normal cardiac myoblast H9c2 cells; details: rat
Procedure: Briefly, 96 well microtiter plates were inoculated with the specified human cancer cell lines in RPMI 1640 medium containing 5% fetal bovine serum and 2 mM L-glutamine at the specified plating densities. The microtiter plates were incubated at 37°C, 5% CO2, and 100% relative humidity for 24 h. The test compounds were solubilized in DMSO at 400-fold the desired final maximum test concentration, diluted with complete medium containing gentamicin and added to the wells of the microtiter plates to achieve the final desired compound concentration, then incubated for an additional 48 h at the same incubation conditions. The media were removed, the cells were fixed then stained with sulforhodamine B and the unbound dye was removed by washing with acetic acid. The bound dye was resolubilized with trizma base and the absorbance at 515 nm was measured. Cells were stained with the WST-1 cell proliferation reagent instead of sulforhodamine B in some experiments and absorbance were measured at 440 nm. The three dose response parameters GI50, TGI and LC50 were calculated for each experimental compound as follows [48]: For values where Ti ≥ Tz the formula is [ (Ti-Tz) / (C-Tz)] x 100 For values where Ti < Tz the formula is [ (Ti-Tz) / Tz] x 100 Where Ti is the absorbance of the solubilized Sulforhodamine B (SRB) (representing the number of cells) of the five different concentrations of the compound used in the test, Tz is the absorbance of the SRB at time zero, and C is the absorbance of the SRB of the control growth.

MDA-MB-468 = experiment: NCI-60 cytotoxicity screen; details: Homo sapiens, MDA-MB-468, read-out: mean log10 of the GI50 values (converted)
[7] = Homo sapiens, Fig 7, read-out: mean log10 of the GI50 values (converted)
[8] = Homo sapiens, five-dose, read-out: GI50
[9] = Homo sapiens, five-dose, read-out: LC50 (the source's name)
[10] = Homo sapiens, read-out: LC50 (the source's name)

`O=C1c2ccccc2C(=O)c2c1ccc1nsnc21` [NSC745885, anthra[1,2-c][1,2,5]thiadiazole-6,11-dione] gave a GI50 (A549/ATCC; [7]) of 5.75 µM, a GI50 (A549/ATCC; [8]) of 14.7 µM and a CC50 (A549/ATCC; [9]) of 91 µM. For the same molecule, the TGI (A549/ATCC; five-dose) was 36.6 µM, the GI50 (EKVX; [7]) was 1.86 µM and the GI50 (EKVX; [8]) was 1.55 µM. For the same molecule, the CC50 (EKVX; [9]) was 7.66 µM, the TGI (EKVX; five-dose) was 3.45 µM and the GI50 (NCI-H226 [1]; [7]) was 8.32 µM. It also gave an LC50 (concentration killing 50% of cells) (NCI-H226 [1]; Homo sapiens, five-dose) of 63.7 µM, a GI50 (NCI-H226 [1]; [8]) of 4.48 µM and a TGI (NCI-H226 [1]; five-dose) of 21.6 µM. For the same molecule, the GI50 (NCI-H522; [7]) was 2.24 µM, the GI50 (NCI-H522; [8]) was 1.66 µM and the CC50 (NCI-H522; [9]) was 9.31 µM. It also gave a TGI (NCI-H522; five-dose) of 3.93 µM, a GI50 (SF-268; [7]) of 2.75 µM and a GI50 (SF-268; [8]) of 2.17 µM. The CC50 (SF-268; [9]) was 27.7 µM, the TGI (SF-268; five-dose) was 5.77 µM and the GI50 (SNB-75 [2]; [7]) was 1.7 µM. It also gave a GI50 (SNB-75 [2]; [8]) of 2.03 µM, a CC50 (SNB-75 [2]; [9]) of 18.6 µM and a TGI (SNB-75 [2]; five-dose) of 5.20 µM. The GI50 (U251; Homo sapiens, U-251, Fig 7, read-out: mean log10 of the GI50 values (converted)) was 2.51 µM, the GI50 (U251; Homo sapiens, U-251, five-dose, read-out: GI50) was 1.61 µM and the CC50 (U251; Homo sapiens, U-251, five-dose, read-out: LC50 (the source's name)) was 5.44 µM. The TGI (U251; five-dose) was 2.96 µM, the GI50 (OVCAR-4; [7]) was 0.575 µM and the GI50 (OVCAR-4; [8]) was 0.65 µM. The CC50 (OVCAR-4; [9]) was 5.57 µM, the inhibition at 10 µM (OVCAR-4; Homo sapiens, single dose 10 μM, read-out: growth inhibition) was 94.4% and the TGI (OVCAR-4; five-dose) was 2.17 µM. For the same molecule, the TGI (786-0; 786–0, five-dose) was 19.3 µM, the GI50 (786-0; Homo sapiens, 786-0, Fig 7, read-out: mean log10 of the GI50 values (converted)) was 4.9 µM and the GI50 (786-0; Homo sapiens, 786–0, five-dose, read-out: GI50) was 6.17 µM. The CC50 (786-0; Homo sapiens, 786–0, five-dose, read-out: LC50 (the source's name)) was 50.4 µM, the GI50 (CAKI-1; [7]) was 1.86 µM and the GI50 (CAKI-1; [8]) was 1.61 µM. It also gave a CC50 (CAKI-1; [9]) of 5.44 µM, a TGI (CAKI-1; five-dose) of 2.96 µM and a GI50 (BT-549; [7]) of 4.57 µM. It also gave a GI50 (BT-549; [8]) of 1.63 µM, a CC50 (BT-549; [9]) of 6.01 µM and a TGI (BT-549; five-dose) of 3.13 µM. The TGI (BSY-1) was 2.8 µM, the GI50 (BSY-1; Homo sapiens) was 1.4 µM and the CC50 (BSY-1; [10]) was 5.6 µM. The TGI (SF-539) was 3.6 µM, the GI50 (SF-539; Homo sapiens) was 1.9 µM and the CC50 (SF-539; [10]) was 6.6 µM. For the same molecule, the TGI (SNB-75 [3]) was 3.9 µM, the GI50 (SNB-75 [3]; Homo sapiens) was 2.2 µM and the CC50 (SNB-75 [3]; [10]) was 7 µM. It also gave a TGI (HCT-15) of 3.4 µM, a GI50 (HCT-15; Homo sapiens) of 1.8 µM and a CC50 (HCT-15; [10]) of 6.3 µM. It also gave a TGI (HCT-116) of 3.0 µM, a GI50 (HCT-116; Homo sapiens) of 1.6 µM and a CC50 (HCT-116; [10]) of 5.8 µM. For the same molecule, the TGI (NCI-H226 [4]) was 3.4 µM, the GI50 (NCI-H226 [4]; Homo sapiens) was 1.6 µM and the CC50 (NCI-H226 [4]; [10]) was 7.3 µM. For the same molecule, the TGI (OVCAR-5) was 3.4 µM, the GI50 (OVCAR-5; Homo sapiens) was 1.9 µM and the CC50 (OVCAR-5; [10]) was 6 µM. The TGI (RXF-631L) was 4.9 µM, the GI50 (RXF-631L; Homo sapiens) was 2.3 µM and the CC50 (RXF-631L; [10]) was 12 µM. The TGI (MKN1) was 1.5 µM, the GI50 (MKN1; Homo sapiens, MKN-1) was 0.47 µM and the CC50 (MKN1; Homo sapiens, MKN-1, read-out: LC50 (the source's name)) was 4.3 µM. It also gave a TGI (PC-3) of 2.8 µM, a GI50 (PC-3; Homo sapiens) of 1.3 µM and a CC50 (PC-3; [10]) of 6 µM. The “selectivity ratios of the NCI subpanels other than leukemia” value [5] was “less than 3”, the GI50 ([5]; Fig 7, read-out: MG-MID of mean log10 GI50 (converted)) was 2.4 µM and the GI50 ([5]; NCI Breast Cancer, read-out: Mean GI50 of subpanel) was 1.54 µM. The GI50 ([5]; NCI CNS Cancer, read-out: Mean GI50 of subpanel) was 1.91 µM, the GI50 ([5]; NCI Colon Cancer, read-out: Mean GI50 of subpanel) was 7.23 µM and the GI50 ([5]; NCI Leukemia, read-out: Mean GI50 of subpanel) was 0.966 µM. It also gave a GI50 ([5]; NCI Melanoma, read-out: Mean GI50 of subpanel) of 1.65 µM, a GI50 ([5]; NCI Non-Small Cell Lung Cancer, read-out: Mean GI50 of subpanel) of 5.37 µM and a GI50 ([5]; NCI Ovarian Cancer, read-out: Mean GI50 of subpanel) of 2.24 µM. The GI50 ([5]; NCI Prostate Cancer, read-out: Mean GI50 of subpanel) was 2.45 µM, the GI50 ([5]; NCI Renal Cancer, read-out: Mean GI50 of subpanel) was 3.65 µM and the GI50 ([5]; all NCI subpanels, read-out: mean GI50 values of the NCI 60 subpanels, range) was 0.97 to 7.2 µM. It also gave a GI50 ([5]; equivalent to MID, read-out: Mean GI50 of all NCI-60 cell line panels) of 3.23 µM, a GI50 ([5]; five-dose, read-out: NCI-60 GI50 values, range over cell lines) of 0.16 to 17.4 µM and a Selectivity ratio ([5]; NCI Breast Cancer) of 2.1. The Selectivity ratio ([5]; NCI CNS Cancer) was 1.69, the Selectivity ratio ([5]; NCI Colon Cancer) was 0.45 and the Selectivity ratio ([5]; NCI Leukemia) was 3.35. For the same molecule, the Selectivity ratio ([5]; NCI Melanoma) was 1.96, the Selectivity ratio ([5]; NCI Non-Small Cell Lung Cancer) was 0.6 and the Selectivity ratio ([5]; NCI Ovarian Cancer) was 1.44. For the same molecule, the Selectivity ratio ([5]; NCI Prostate Cancer) was 1.32, the Selectivity ratio ([5]; NCI Renal Cancer) was 0.89 and the “cytotoxicity towards normal cardiac myoblast H9c2 cells” value [6] was “significantly less cytotoxic effects on H9c2 cells at higher doses than doxorubicin”. It also gave a GI50 (MDA-MB-468) of 1.82 µM.
